Columns and labels:
Assay type in all cases: cell-based
[1] = Viability evaluation (MTS/PMS) of replicon RNA-transfected Huh7 cells, Example 2; conditions: human, highest tested concentration 50 µM
From the text: Obtained values are expressed as percent inhibition of untreated RNA-transfected control condition.

[2] = test system: rat HEV replicon LAB350/luc; test: Antiviral activity against rat HEV replicon LAB350/luc in Huh7 cells (Gaussia luciferase); conditions: Huh-7, 72 h, 3 days, 50% reduction in Luc signal, two experiments
[3] = test system: HEV Genotype 3 replicon Kernow-C1 p6/luc; test: Antiviral activity against HEV Genotype 3 replicon Kernow-C1 p6/luc in Huh7 cells (Gaussia luciferase); conditions: Huh-7, 96 h, read-out: relative EC50

Row | Compound | CC50 [1] | EC50 [2] | EC50 [3]
1 | CCOc1nc(N)nc2c1ncn2[C@@H]1O[C@](F)(COP(=O)(N[C@@H](C)C(=O)OC2CCCCC2)Oc2ccccc2)[C@@H](O)[C@@]1(C)O (stereo partly shown) [Compound 2] | > 50 µM | – | –
2 | CCOc1nc(N)nc2c1ncn2[C@@H]1O[C@](F)(COP(=O)(OCOC(=O)OC(C)C)OCOC(=O)OC(C)C)[C@@H](O)[C@@]1(C)F [Compound 3] | > 50 µM | – | –
3 | CCOc1nc(N)nc2c1ncn2[C@@H]1O[C@]2(F)CO[P@@](=O)(NCC(=O)OC(C)C)O[C@H]2[C@@]1(C)F [Compound 5] | > 50 µM | 0.046 µM | 0.022 µM
4 | CCOc1nc(N)nc2c1ncn2[C@@H]1O[C@](F)(COP(=O)(OCOC(=O)OC(C)C)OCOC(=O)OC(C)C)[C@@H](O)[C@@]1(C)O [Compound 6] | > 50 µM | – | –
5 | CC(C)OC(=O)[C@H](C)N[P@](=O)(OC[C@@]1(F)O[C@@H](n2ccc(=O)[nH]c2=O)[C@](C)(O)[C@@H]1O)Oc1ccccc1 [Compound 7] | > 50 µM | – | –
6 | CCOc1nc(N)nc2c1ncn2[C@@H]1O[C@]2(F)CO[P@@](=O)(N[C@H](C)C(=O)OC(C)C)O[C@H]2[C@@]1(C)F [Compound 8] | > 50 µM | – | –
7 | CC(C)OC(=O)OCOP(=O)(OCOC(=O)OC(C)C)OC[C@@]1(F)O[C@@H](n2ccc(=O)[nH]c2=O)[C@](C)(O)[C@@H]1O [Compound 9] | > 50 µM | – | –
8 | CC(C)OC(=O)OCOP(=O)(OCOC(=O)OC(C)C)OC[C@@]1(F)O[C@@H](n2ccc(=O)[nH]c2=O)[C@](C)(F)[C@@H]1O [Compound 11] | > 50 µM | – | –
